Laboratory results from patent publication US8956999B2, “Herbicides” (Syngenta Limited, priority 2007, dated 2015).

Legend:
Assay type in all cases: in vivo
[1] = test system: Echinochloa crus-galli (ECHCG); experiment: Example B pre-emergence herbicidal test, glasshouse; details: Echinochloa crus-galli, 312 h, rate 250 g/ha, evaluated after 13 days, 100=total damage to plant, 0=no damage to plant, read-out: Pre-Emergence Activity ECHGG
Procedure: (§1) Seeds of a variety of test species were sown in standard soil in pots. After cultivation for one day (pre-emergence) or after 8 days cultivation (post-emergence) under controlled conditions in a glasshouse (at 24/16° C., day/night; 14 hours light; 65% humidity), the plants were sprayed with an aqueous spray solution derived from the formulation of the technical active ingredient in acetone/water (50:50) solution containing 0.5% Tween 20 (polyoxyethelyene sorbitan monolaurate, CAS RN 9005-64-5). The test plants were then grown in a glasshouse under controlled conditions in a glasshouse (at 24/16° C., day/night; 14 hours light; 65% humidity) and watered twice daily. After 13 days for pre and post-emergence, the test was evaluated (100=total damage to plant; 0=no damage to plant). Test Plants: Alopecurus myosuroides (ALOMY), Avena fatua (AVEFA), Setaria faberi (SETFA), Echinochloa crus-galli (ECHCG), Solanum nigrum (SOLNI) and Amaranthus retoflexus (AMARE)

[2] = test system: Amaranthus retoflexus (AMARE); experiment: as above; details: Amaranthus retroflexus, 312 h, rate 250 g/ha, evaluated after 13 days, 100=total damage to plant, 0=no damage to plant
Procedure: as §1

[3] = test system: Alopecurus myosuroides (ALOMY); experiment: as above; details: 312 h, rate 250 g/ha, evaluated after 13 days, 100=total damage to plant, 0=no damage to plant
Procedure: as §1

Setaria faberi (SETFA) [4] = experiment: as above; details: Setaria faberi, 312 h, rate 250 g/ha, evaluated after 13 days, 100=total damage to plant, 0=no damage to plant, read-out: Pre-Emergence Activity SEFTA
Procedure: as §1

Avena fatua (AVEFA) [5] = experiment: as above; details: 312 h, rate 250 g/ha, evaluated after 13 days, 100=total damage to plant, 0=no damage to plant
Procedure: as §1

[6] = test system: Echinochloa crus-galli (ECHCG); experiment: Example B post-emergence herbicidal test, glasshouse; details: 312 h, rate 250 g/ha, evaluated after 13 days, read-out: Post-Emergence Activity ECHGG (100=total damage to plant; 0=no damage to plant)
Procedure: as §1

[7] = test system: Amaranthus retoflexus (AMARE); experiment: as above; details: Amaranthus retroflexus, 312 h, rate 250 g/ha, evaluated after 13 days, read-out: Post-Emergence Activity AMARE (100=total damage to plant; 0=no damage to plant)
Procedure: as §1

[8] = test system: Alopecurus myosuroides (ALOMY); experiment: as above; details: 312 h, rate 250 g/ha, evaluated after 13 days, read-out: Post-Emergence Activity ALOMY (100=total damage to plant; 0=no damage to plant)
Procedure: as §1

Setaria faberi (SETFA) [9] = experiment: as above; details: 312 h, rate 250 g/ha, evaluated after 13 days, read-out: Post-Emergence Activity SEFTA (100=total damage to plant; 0=no damage to plant)
Procedure: as §1

Avena fatua (AVEFA) [10] = experiment: as above; details: 312 h, rate 250 g/ha, evaluated after 13 days, read-out: Post-Emergence Activity AVEFA (100=total damage to plant; 0=no damage to plant)
Procedure: as §1

Structure (SMILES) | pest or weed control at 250 g/ha [1] [%] | pest or weed control at 250 g/ha [2] [%] | pest or weed control at 250 g/ha [3] [%] | pest or weed control at 250 g/ha (Setaria faberi (SETFA) [4]) [%] | pest or weed control at 250 g/ha (Avena fatua (AVEFA) [5]) [%] | pest or weed control at 250 g/ha [6] [%] | pest or weed control at 250 g/ha [7] [%] | pest or weed control at 250 g/ha [8] [%] | pest or weed control at 250 g/ha (Setaria faberi (SETFA) [9]) [%] | pest or weed control at 250 g/ha (Avena fatua (AVEFA) [10]) [%]
Cc1sc(-c2ccc(Cl)cc2F)nc1C1C(=O)C(C)(C)OC(C)(C)C1=O [Compound T21] | 100 | 0 | 60 | 100 | 0 | 100 | 0 | 100 | 100 | 90
Cc1sc(-c2ccc(Cl)c(F)c2)nc1C1C(=O)C(C)(C)OC(C)(C)C1=O [Compound T22] | 90 | 0 | 70 | 100 | 20 | 100 | 0 | 100 | 100 | 90
CCc1sc(-c2cc(F)c(Cl)cc2Cl)nc1C1C(=O)C(C)(C)OC(C)(C)C1=O [Compound T65] |  |  |  |  |  | 100 | 0 | 90 | 100 | 70
Cc1sc(-c2ccc(Cl)s2)nc1C1C(=O)C(C)(C)OC(C)(C)C1=O [Compound T55] | 20 | 0 | 0 | 50 | 0 | 70 | 0 | 40 | 60 | 0
CCc1sc(-c2ccc(Br)cc2)nc1C1C(=O)C(C)(C)OC(C)(C)C1=O [Compound T49] | 60 | 0 | 60 | 80 | 20 | 100 | 20 | 100 | 100 | 100
CCc1sc(-c2ccc(Br)cc2C)nc1C1C(=O)C(C)(C)OC(C)(C)C1=O [Compound T57] | 50 | 0 | 20 | 90 | 30 | 100 | 0 | 100 | 100 | 90
CCc1sc(-c2ccc(Cl)c(F)c2)nc1C1C(=O)C(C)(C)OC(C)(C)C1=O [Compound T48] | 50 | 0 | 30 | 70 | 60 | 100 | 0 | 100 | 100 | 100
Cc1sc(-c2ccc(Br)cn2)nc1C1C(=O)C(C)(C)OC(C)(C)C1=O [Compound T56] | 10 | 0 | 0 | 20 | 0 | 80 | 0 | 30 | 90 | 20
Cc1nc(-c2ccc(Cl)cc2)sc1C1C(=O)C(C)(C)OC(C)(C)C1=O [Compound T66] |  |  |  |  |  | 90 | 0 | 70 | 80 | 40
Cc1sc(-c2ccc(I)cc2)nc1C1C(=O)C(C)(C)OC(C)(C)C1=O [Compound T51] | 60 | 0 | 40 | 100 | 80 | 90 | 0 | 100 | 100 | 90
